From patent US20220340665A1, “INHIBITOR AGAINST EXPRESSION OF IMMUNE CHECKPOINT MOLECULE” (RENASCIENCE INC., priority 2019, published 2022) come the findings set out here.

Assay [1] has as its system cancer cell line (B16F10). Nature of the assay: PD-L1 expression induced by rPAI-1 in B16F10 with STAT3 inhibitor (Experimental Example 18). It is filed as cell-based, mouse. As to conditions: simultaneous addition of rPAI-1 and STAT3 inhibitor. Here is the method:
In order to clarify the mechanism of induction of PD-L1 expression by PAI-1, rPAI-1 was added to a culture medium of a cancer cell line (B16F10); after culturing for 6 hours, the cells were collected, and the degree of phosphorylation of JAK/STAT molecules was analyzed.
Further, FIG. 18(B) confirmed that the increase in the PD-L1 expression induced by rPAI-1 was suppressed by simultaneous addition of rPAI-1 and a STAT3 inhibitor (BP-1-102, C188-9).

Assay [2] concerns the target T1, human PAI-1 (Homo sapiens, UniProt P05121). Put plainly: PAI-1 inhibitory activity, t-PA with S-2288 chromogenic substrate (Reference Experimental Example 1). As to conditions: system without compound after 30 minutes = 100%.
Method: Subsequently, human-derived tissue plasminogen activator (t-PA) (manufactured by American Diagnostica, Inc. (USA); the same applies hereinafter) adjusted to 0.35 pmol/μL was added thereto, and the mixture was further incubated at 37° C. for 15 minutes.
The target in assay [3] is T1, human PAI-1. Nature of the assay: PAI-1 inhibitory activity, t-PA with Spectrozyme t-PA chromogenic substrate (Reference Experimental Example 2). The assay is classed as biochemical. More on the design: purchased Molecular Innovations, Inc. (USA). On the procedure: Subsequently, human-derived tissue plasminogen activator (t-PA) (manufactured by American Diagnostica, Inc. (USA); the same applies hereinafter) adjusted to 0.05 pmol/μL was added thereto, and the mixture was further incubated at 37° C. for 60 minutes. Then, 0.25 mM of Spectrozyme t-PA synthetic substrate (manufactured by American Diagnostica, Inc. (USA); the same applies hereinafter), which is a chromogenic substrate, was added. […]
Free p-nitroaniline removed from the chromogenic substrate (Spectrozyme t-PA) by t-PA action was measured using a spectrophotometer at an absorbance of 405 nm at 20-minute intervals, for 120 minutes.

The mark [4] stands for this setting: Tables 5 to 7, first value column, head prints no concentration.
[5] abbreviates: Tables 5 to 7, second value column, head prints no concentration.
[6] abbreviates: compound 10 μm (head), system without compound after 120 minutes = 100%.
Setting [7] is: compound 25 μm (head), system without compound after 120 minutes = 100%.

T1 sequence (P05121 24-402): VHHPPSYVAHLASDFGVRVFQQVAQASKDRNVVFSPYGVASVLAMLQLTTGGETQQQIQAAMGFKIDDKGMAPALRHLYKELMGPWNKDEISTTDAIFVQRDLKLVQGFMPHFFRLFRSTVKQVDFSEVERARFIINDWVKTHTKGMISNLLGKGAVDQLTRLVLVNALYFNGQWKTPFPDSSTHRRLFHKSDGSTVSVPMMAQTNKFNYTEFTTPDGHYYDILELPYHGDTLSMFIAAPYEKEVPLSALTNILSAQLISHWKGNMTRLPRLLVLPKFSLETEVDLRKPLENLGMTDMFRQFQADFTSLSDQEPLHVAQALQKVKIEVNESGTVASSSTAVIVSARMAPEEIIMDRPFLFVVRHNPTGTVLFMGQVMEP

For `COc1ccc(S(=O)(=O)Nc2cc(-c3c(O)ccc4ccccc34)c(O)c3ccccc23)cc1` [Example C188-9], the “increase in the PD-L1 expression induced by rPAI-1” value in assay [1] is “suppressed”.
With `O=C(CCCNC(=O)c1cccc(-c2ccoc2)c1)Nc1ccc(Cl)cc1C(=O)O` [Example 1], the PAI-1 activity % amounted to 95.5% in assay [2] (compound 20 μm (head)) and 48.9% in assay [2] (compound 50 μm (head)).
On to `CN(CC(=O)N(Cc1ccc(C2CCCCC2)cc1)c1ccc(C(=O)O)c(O)c1)S(=O)(=O)c1c(F)c(F)c(F)c(F)c1F` [BP-1-102], for which, in assay [1], the “increase in the PD-L1 expression induced by rPAI-1” value is listed as “suppressed”.
Turning to `O=C(Nc1ccc(C23CC4CC(CC(C4)C2)C3)cc1)C(=O)Nc1ccc(Cl)cc1C(=O)[O-].[Na+]` [Example 106, [(([4-(adamantan-1-yl)phenyl]amino)(oxo)acetyl)amino]-5-sodium chlorobenzoate], the PAI-1 activity % in assay [3] (setting [4]) came out at 26.3%; in assay [3] (setting [5]), 88.4%.
Take `O=C(Nc1ccc(Cl)cc1C(=O)[O-])c1cccc(-c2cccc3cnccc23)c1.[Na+]` [Example 66]: the PAI-1 activity % was 0.1% in assay [3] (setting [6]) and 22.6% in assay [3] (setting [7]).
Take `O=C(Nc1ccc(Cl)cc1C(=O)O)C(=O)c1c[nH]c2ccc(OCc3ccccc3)cc12` [Example 57, 2-(((5-(benzyloxy)-1H-indol-3-yl)(oxo)acetyl)amino)-5-chlorobenzoic acid]: in assay [3] (setting [7]), the PAI-1 activity % stood at 36.6%.
As to `O=C(O)c1cc(Cl)ccc1NC(=O)C1CCCN(C(=O)Cc2cccc(-c3ccoc3)c2)C1` (centres unmarked) [Example 12], the PAI-1 activity % in assay [2] (compound 20 μm (head)) was found to be 57.7%; in assay [2] (compound 50 μm (head)), 15.7%.
On to `O=C(CN1CCN(C(c2ccccc2)c2ccccc2)CC1)Nc1ccc(Cl)cc1C(=O)O` [Example 77, 5-chloro-2-(((4-(diphenylmethyl)piperazin-1-yl)acetyl)amino)benzoic acid], for which the PAI-1 activity % in assay [3] (setting [5]) is 69.6%.
Regarding `O=C(O)c1cc(Cl)ccc1NC(=O)C1CCCN(C(=O)c2cccc(-c3ccccc3)c2)C1` (centres unmarked) [Example 31, 2-(((1-(biphenyl-3-ylcarbonyl)pipendin-3-yl)carbonyl)amino)-5-chlorobenzoic acid], the PAI-1 activity % came out at 20.2% in assay [3] (setting [6]) and 88.0% in assay [3] (setting [7]).
Turning to `O=C(Nc1ccc(Cl)cc1C(=O)[O-])c1cccc(-c2cncc3ccccc23)c1.[Na+]` [Example 64, 5-chloro-2-(((3-(isoquinolin-4-yl)phenyl)carbonyl)amino)sodium benzoate], the figures for the PAI-1 activity % in assay [3] (setting [6]) and in assay [3] (setting [7]) were 0.7% and 74.3%, respectively.
For `O=C([O-])c1cc(Cl)ccc1NC(=O)C1CCCN(C(=O)c2cccc(-c3ccoc3)c2)C1.[Na+]` (centres unmarked) [Example 11], the values for the PAI-1 activity % in assay [2] (compound 20 μm (head)) and in assay [2] (compound 50 μm (head)) were 68.2% and 26.1%, respectively.
Take `O=C(/C=C/c1cccc(-c2cccc3cccnc23)c1)Nc1ccc(Cl)cc1C(=O)[O-].[Na+]` [Example 101, 5-chloro-2-(((2E)-3-(3-(quinolin-8-yl)phenyl)prop-2-enoyl)amino)sodium benzoate]: the PAI-1 activity % in assay [3] (setting [4]) is listed as 0.2%; in assay [3] (setting [5]) it was 24.7%.
